Data from PubChem BioAssay (NCI).
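A five-concentration, 48-hour dose response in 96-well plates underlies each endpoint, interpolated linearly between surrounding concentrations. At the GI50, growth is halved. TGI marks complete inhibition of growth.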

Key:
Assay in all cases: NCI anticancer screen, dose series, 48 h
[1] = test system: RXF 393 renal
[2] = test system: IGROV1 ovarian
[3] = test system: MCF7 breast
[4] = test system: LOX IMVI melanoma
[5] = test system: HCT-116 colon
[6] = test system: MALME-3M melanoma
[7] = test system: NCI-H460 lung
[8] = test system: TK-10 renal
[9] = test system: UACC-62 melanoma
[10] = test system: OVCAR-3 ovarian
[11] = test system: MOLT-4 leukemia
[12] = test system: HOP-92 NSCLC
[13] = test system: SNB-19 CNS
[14] = test system: T-47D breast
[15] = test system: HCT-15 colon
[16] = test system: RPMI-8226 leukemia
[17] = test system: SF-295 CNS
[18] = test system: NCI-H522 lung
[19] = test system: MDA-MB-435
[20] = test system: PC-3 prostate
[21] = test system: NCI/ADR-RES ovarian
[22] = test system: SF-539 CNS
[23] = test system: SNB-75 CNS
[24] = test system: EKVX NSCLC
[25] = test system: SW-620 colon
[26] = test system: SN12C renal
[27] = test system: A498 renal
[28] = test system: 786-0 renal
[29] = test system: UACC-257 melanoma
[30] = test system: ACHN renal
[31] = test system: A549 NSCLC
[32] = test system: OVCAR-5 ovarian
[33] = test system: HCC-2998 colon
[34] = test system: KM12 colon
[35] = test system: MDA-MB-231 breast
[36] = test system: NCI-H23 lung
[37] = test system: DU-145 prostate
[38] = test system: OVCAR-8 ovarian
[39] = test system: SK-OV-3 ovarian
[40] = test system: HS 578T breast
[41] = test system: HOP-62 NSCLC
[42] = test system: NCI-H226 lung
[43] = test system: OVCAR-4 ovarian
[44] = test system: SK-MEL-5 melanoma
[45] = test system: SK-MEL-2 melanoma
[46] = test system: U251 CNS
[47] = test system: UO-31 renal
[48] = test system: CAKI-1 renal
[49] = test system: SK-MEL-28 melanoma
[50] = test system: COLO 205 colon
[51] = test system: CCRF-CEM leukemia
[52] = test system: K-562 leukemia
[53] = test system: BT-549 breast
[54] = test system: SF-268 CNS
[55] = test system: HL-60(TB) leukemia
[56] = test system: SR leukemia
[57] = test system: M14 melanoma

With `Nc1ncnc2c1c(C(F)(F)F)cn2[C@@H]1O[C@H](CO)[C@@H](O)[C@H]1O` the GI50 [1] was 237 nM, the TGI [1] was 1670 nM and the GI50 [2] was 619 nM. For the same compound, the TGI [2] was greater than 100000 nM, the GI50 [3] was 40.5 nM and the TGI [3] was greater than 86300 nM. For the same compound, the GI50 [4] was 51 nM, the TGI [4] was greater than 100000 nM and the GI50 [5] was 213 nM. The TGI [5] was greater than 100000 nM, the GI50 [6] was 104 nM and the TGI [6] was 2510 nM. For the same compound, the GI50 [7] was 262 nM, the TGI [7] was greater than 43600 nM and the GI50 [8] was 926 nM. The TGI [8] was greater than 100000 nM, the GI50 [9] was 60.1 nM and the TGI [9] was 1780 nM. The GI50 [10] was 398 nM, the TGI [10] was greater than 100000 nM and the GI50 [11] was 324 nM. It also gave a TGI [11] of 1480 nM, a GI50 [12] of 222 nM and a TGI [12] of 6620 nM. For the same compound, the GI50 [13] was 793 nM, the TGI [13] was greater than 100000 nM and the GI50 [14] was 104 nM. It also gave a TGI [14] of 70800 nM, a GI50 [15] of 197 nM and a TGI [15] greater than 100000 nM. It also gave a GI50 [16] of 151 nM, a TGI [16] of 1820 nM and a GI50 [17] of 442 nM. For the same compound, the TGI [17] was greater than 23300 nM, the GI50 [18] was 319 nM and the TGI [18] was 3150 nM. The GI50 [19] was 66 nM, the TGI [19] was 2080 nM and the GI50 [20] was 72.5 nM. The GI50 [21] was 363 nM, the TGI [21] was greater than 100000 nM and the GI50 [22] was 642 nM. The TGI [22] was 2730 nM, the GI50 [23] was 708 nM and the TGI [23] was 3620 nM. The GI50 [24] was 1230 nM, the TGI [24] was greater than 27300 nM and the GI50 [25] was 64.4 nM. It also gave a TGI [25] greater than 100000 nM, a GI50 [26] of 157 nM and a TGI [26] greater than 100000 nM. For the same compound, the GI50 [27] was 93.6 nM, the TGI [27] was 1950 nM and the GI50 [28] was 2150 nM. The TGI [28] was greater than 100000 nM, the GI50 [29] was 306 nM and the GI50 [30] was 183 nM. The TGI [30] was greater than 100000 nM, the GI50 [31] was 324 nM and the TGI [31] was greater than 56100 nM. The GI50 [32] was 1020 nM, the TGI [32] was greater than 72200 nM and the GI50 [33] was 633 nM. It also gave a TGI [33] of 12800 nM, a GI50 [34] of 134 nM and a GI50 [35] of 652 nM. It also gave a TGI [35] greater than 100000 nM, a GI50 [36] of 153 nM and a TGI [36] of 5290 nM. The GI50 [37] was 94.5 nM, the TGI [37] was greater than 100000 nM and the GI50 [38] was 595 nM. The TGI [38] was greater than 100000 nM, the GI50 [39] was 2490 nM and the TGI [39] was greater than 100000 nM. It also gave a GI50 [40] of 813 nM, a TGI [40] of 7540 nM and a GI50 [41] of 278 nM. The TGI [41] was greater than 100000 nM, the GI50 [42] was 1120 nM and the TGI [42] was 79700 nM. It also gave a GI50 [43] of 1030 nM, a TGI [43] greater than 100000 nM and a GI50 [44] of 402 nM. For the same compound, the TGI [44] was 5020 nM, the GI50 [45] was 953 nM and the TGI [45] was 2790 nM. The GI50 [46] was 1330 nM, the TGI [46] was greater than 89600 nM and the GI50 [47] was 928 nM. It also gave a TGI [47] of 5010 nM, a GI50 [48] of 490 nM and a TGI [48] greater than 100000 nM. The GI50 [49] was 1290 nM, the TGI [49] was 6130 nM and the GI50 [50] was 73.1 nM. The TGI [50] was 1400 nM, the GI50 [51] was 102 nM and the TGI [51] was greater than 100000 nM. It also gave a GI50 [52] of 304 nM, a TGI [52] of 1410 nM and a GI50 [53] of 192 nM. It also gave a TGI [53] of 3440 nM, a GI50 [54] of 1190 nM and a TGI [54] greater than 26300 nM. For the same compound, the GI50 [55] was 212 nM, the TGI [55] was 492 nM and the GI50 [56] was 341 nM. The GI50 [57] was 41.9 nM and the TGI [57] was 1910 nM.
